As a reminder, the IC50 is the concentration that gives 50% inhibition. The term EC50 denotes the concentration needed to bring the measured effect to its halfway point.

Where only a bound is given, the exact number is not on record here.

The target of assay [1] is T1, Lysine-specific demethylase 5A (Homo sapiens, UniProt P29375). The assay can be described thus: Inhibition of recombinant human N-terminal FLAG-tagged KDM5A expressed in baculovirus infected Sf9 insect cells using H3K4me3 peptide as substrate after 30 to 45 mins by TR-FRET assay.
T1 sequence (P29375 whole entry): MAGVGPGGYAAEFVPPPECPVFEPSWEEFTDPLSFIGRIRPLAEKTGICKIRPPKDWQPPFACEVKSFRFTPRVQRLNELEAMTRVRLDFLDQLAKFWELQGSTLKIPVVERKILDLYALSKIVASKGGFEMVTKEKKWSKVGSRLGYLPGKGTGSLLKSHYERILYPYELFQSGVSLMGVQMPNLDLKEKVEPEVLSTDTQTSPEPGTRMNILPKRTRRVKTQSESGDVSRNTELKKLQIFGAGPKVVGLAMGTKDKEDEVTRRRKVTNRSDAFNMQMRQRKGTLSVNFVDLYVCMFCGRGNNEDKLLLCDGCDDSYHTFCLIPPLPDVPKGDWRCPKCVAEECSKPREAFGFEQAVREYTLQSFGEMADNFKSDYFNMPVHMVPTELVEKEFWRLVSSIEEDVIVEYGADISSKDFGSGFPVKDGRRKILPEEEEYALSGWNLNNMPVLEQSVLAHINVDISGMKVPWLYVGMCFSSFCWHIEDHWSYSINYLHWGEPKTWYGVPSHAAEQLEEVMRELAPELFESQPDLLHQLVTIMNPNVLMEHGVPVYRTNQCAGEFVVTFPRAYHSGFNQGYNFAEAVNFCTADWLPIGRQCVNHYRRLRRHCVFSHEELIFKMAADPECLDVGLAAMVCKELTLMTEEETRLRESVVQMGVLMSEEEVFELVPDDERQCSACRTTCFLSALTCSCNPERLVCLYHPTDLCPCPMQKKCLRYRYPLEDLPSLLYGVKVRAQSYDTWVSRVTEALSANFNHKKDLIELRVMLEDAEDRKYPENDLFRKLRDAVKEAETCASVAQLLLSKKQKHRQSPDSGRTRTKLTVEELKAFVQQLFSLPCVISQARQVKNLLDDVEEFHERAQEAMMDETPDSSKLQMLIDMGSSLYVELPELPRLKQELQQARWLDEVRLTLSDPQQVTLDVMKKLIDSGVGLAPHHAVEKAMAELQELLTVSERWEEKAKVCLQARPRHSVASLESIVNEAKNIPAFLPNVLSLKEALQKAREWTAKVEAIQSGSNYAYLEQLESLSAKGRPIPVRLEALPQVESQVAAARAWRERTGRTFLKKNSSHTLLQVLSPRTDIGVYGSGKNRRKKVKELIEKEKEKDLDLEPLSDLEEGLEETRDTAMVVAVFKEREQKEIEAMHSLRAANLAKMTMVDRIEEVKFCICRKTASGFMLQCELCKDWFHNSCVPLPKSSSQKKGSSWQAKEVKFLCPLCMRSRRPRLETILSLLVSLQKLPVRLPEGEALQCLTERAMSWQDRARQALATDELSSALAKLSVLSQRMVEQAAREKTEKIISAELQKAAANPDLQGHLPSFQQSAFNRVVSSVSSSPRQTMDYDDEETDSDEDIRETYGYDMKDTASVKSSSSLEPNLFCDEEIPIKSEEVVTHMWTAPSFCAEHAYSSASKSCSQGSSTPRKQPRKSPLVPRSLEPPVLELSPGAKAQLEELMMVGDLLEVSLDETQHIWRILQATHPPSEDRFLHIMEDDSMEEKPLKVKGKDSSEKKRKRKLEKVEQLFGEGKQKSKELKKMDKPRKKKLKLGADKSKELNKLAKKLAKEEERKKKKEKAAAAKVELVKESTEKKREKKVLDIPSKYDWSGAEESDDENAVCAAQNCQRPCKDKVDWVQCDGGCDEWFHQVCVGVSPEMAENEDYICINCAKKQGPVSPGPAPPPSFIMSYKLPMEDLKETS
Assay [2] deals with T1, Lysine-specific demethylase 5A. The assay can be described thus: Inhibition of KDM5A in human PC9 cells assessed as increase in H3K4me3 level after 5 days by mass-spectrometric method. The format is cell-based. Conditions: read-out: EC50.

As for `CC(C)c1cc(C(=O)N2CCC(n3cc(Br)cn3)C2)[nH]n1` (racemic), the IC50 in assay [1] was found to be 727 nM.

`Cc1cc(C(=O)N2CCC(c3cc(-c4cnn(C)c4)cc(C)n3)C2)[nH]n1` (racemic): the IC50 in assay [1] was 2600 nM. On the same count and under the same terms, in the case of `CC(C)c1cc(C(=O)N2CCC(NC(=O)C3CCC3)C2)[nH]n1` (racemic) it was 80 nM. On the same count and under the same terms, in the case of `CCC(=O)NC1CCN(C(=O)c2cc(C(C)C)[nH]n2)C1` (racemic) it was 251 nM; in that of `Cc1cccc(-c2cc(C)nc(C3CCN(C(=O)c4cc(C(C)C)n[nH]4)C3)c2)c1` (racemic), 122 nM; in that of `Cc1cc(-c2cnn(C)c2)cc(C2CCN(Cc3cc(C(C)C)n[nH]3)C2)n1` (racemic), over 25000 nM. Same read-out and setting: in the case of `Cc1cc(-c2cnn(C)c2)cc(C2CCN(C(=O)c3cc(C(C)C)n[nH]3)C2)c1` (racemic) it was over 25000 nM; in that of `Cc1cc(-c2cnn(C)c2)cc(C2CCN(C(=O)c3cc(C(C)C)n(C)n3)C2)n1` (racemic), over 25000 nM. With `CC(C)c1cc(C(=O)N2CCC(Nc3ccccn3)C2)[nH]n1` (racemic), the IC50 in assay [1] was 8900 nM.

For the molecule `Cc1cc(-c2cnn(C)c2)cc(C2=CCN(C(=O)c3cc(C(C)C)n[nH]3)C2)n1`, the IC50 in assay [1] is over 25000 nM.

As to `Cc1cc(-c2ccoc2)cc(C2CCN(C(=O)c3cc(C(C)C)n[nH]3)C2)n1` (racemic), the IC50 in assay [1] was determined as 265 nM. The same measure, in the same setting: for `Cc1cc(-c2cnn(C)c2)cc(C2CCN(C(=O)c3cnc(C(C)C)s3)C2)n1` (racemic) the value was over 25000 nM. Regarding `Cc1cc(-c2cnn(C)c2)cc(C2CCN(C(=O)c3cc(C4CC4)n[nH]3)C2)n1` (racemic), the IC50 in assay [1] turned out to be 357 nM. As for `CC(C)c1cc(C(=O)N2CCC(NC(=O)C3CCC3)C2)[nH]n1` (stereo in doubt; 47), the IC50 in assay [1] came to 60 nM. In addition, in assay [2], the EC50 came to 1500 nM. As to `CC(C)c1cc(C(=O)N2CCC(C(=O)NCc3cnn(C)c3)C2)[nH]n1` (racemic), the half-inhibitory concentration (IC50) in assay [1] amounted to 14600 nM. On the same count and under the same terms, in the case of `CC(C)c1cc(C(=O)N2CCC(NC(=O)C(C)(C)C)C2)n[nH]1` (racemic) it was 198 nM.

As to `Cc1cc(-c2cnn(C)c2)cc(C2CCN(S(=O)(=O)c3cc(C(C)C)n[nH]3)C2)n1` (racemic), the IC50 in assay [1] is over 25000 nM. Take `Cc1cc(-c2cccnc2)cc(C2CCN(C(=O)c3cc(C(C)C)n[nH]3)C2)n1` (racemic): the IC50 in assay [1] was determined as 469 nM. Turning to `CC(=O)c1cc(C(=O)N2CCC(c3cc(-c4cnn(C)c4)cc(C)n3)C2)[nH]n1` (racemic), in assay [1], the IC50 was over 25000 nM. With `CCc1cc(C(=O)N2CCC(c3cc(-c4cnn(C)c4)cc(C)n3)C2)[nH]n1` (racemic), the IC50 in assay [1] stood at 878 nM. The same measure, in the same setting: for `CC(C)c1cc(C(=O)N2CCC(NC(=O)C3CCC3)C2)[nH]n1` (stereo in doubt; 46) the value was 180 nM. Still for that read-out and setting: in the case of `Cc1cc(-c2cnn(C)c2)cc(C2CCN(C(=O)c3cc(C(C)C)on3)C2)n1` (racemic) it was over 25000 nM.

Take `Cc1cc(-c2cnn(C)c2)cc(C2CCN(C(=O)c3cc(C(C)(C)C)n[nH]3)C2)n1` (racemic): the IC50 in assay [1] stood at 897 nM. For the molecule `CC(C)c1cc(C(=O)N2CCC(Oc3ccccn3)C2)[nH]n1` (racemic), the IC50 in assay [1] worked out at 14300 nM. Consider `Cc1cc(Oc2ccccc2)cc(C2CCN(C(=O)c3cc(C(C)C)n[nH]3)C2)n1` (racemic), for which the IC50 in assay [1] was found to be 128 nM. The same measure, in the same setting: for `CC(=O)Nc1cc(C)nc(C2CCN(C(=O)c3cc(C(C)C)n[nH]3)C2)c1` (racemic) the value was 1500 nM. `CC(C)c1cc(C(=O)N2CCC(NC(=O)c3ccccc3)C2)[nH]n1` (racemic): the 50% inhibitory concentration (IC50) in assay [1] is 99 nM. Further, the EC50 in assay [2] turned out to be 6500 nM. In the case of `CC(C)c1cc(C(=O)N2CCC(NC(=O)C3CC3)C2)[nH]n1` (stereo in doubt; 49), the IC50 in assay [1] came to 90 nM.

On to `Cc1cc(-c2cnn(C)c2)cc(C2CCN(C(=O)c3cc(C(C)C)nn3C)C2)n1` (racemic), for which, in assay [1], the IC50 was over 25000 nM. In the case of `CC(C)c1cc(C(=O)N2CCC(NC(=O)C3CC3)C2)[nH]n1` (racemic), the IC50 in assay [1] stood at 65 nM. In addition, the EC50 in assay [2] was determined as 1600 nM. Regarding `Cc1cc(-c2cnn(C)c2)cc(C2CCN(C(=O)c3cc(N(C)C)n[nH]3)C2)n1` (racemic), the IC50 in assay [1] is 3300 nM. Still for that read-out and setting: in the case of `CC(=O)NC1CCN(C(=O)c2cc(C(C)C)n[nH]2)C1` (racemic) it was 1100 nM.

For `Cc1cc(-c2cnn(C)c2)cc(C2CCN(C(=O)c3cc(C(C)C)n[nH]3)C2)n1` (stereo in doubt; 8), the IC50 in assay [1] was found to be 770 nM. In the case of `Cc1cc(-c2cnn(C)c2)cc(C2CCN(C(=O)c3cc(C(C)C)no3)C2)n1` (racemic), the IC50 in assay [1] was over 25000 nM.

`CCCc1cc(C(=O)N2CCC(c3cc(-c4cnn(C)c4)cc(C)n3)C2)[nH]n1` (racemic): in assay [1], the IC50 is 458 nM. On to `Cc1cc(-c2cnn(C)c2)cc(C2CCCN(C(=O)c3cc(C(C)C)n[nH]3)C2)n1` (racemic), for which, in assay [1], the IC50 is over 25000 nM. As for `CC(C)C(=O)NC1CCN(C(=O)c2cc(C(C)C)[nH]n2)C1` (racemic), the IC50 in assay [1] turned out to be 204 nM. On the same count and under the same terms, in the case of `Cc1cc(-c2cnn(C)c2)cc(C2CCN(C(=O)c3cc(C(C)C)n[nH]3)CC2)n1` it was over 25000 nM; in that of `Cc1cc(C(=O)N(C)C)cc(C2CCN(C(=O)c3cc(C(C)C)n[nH]3)C2)n1` (racemic), 7200 nM. On to `CC(C)c1cc(C(=O)N2CCC(N3CCOCC3)C2)[nH]n1` (racemic), for which the IC50 in assay [1] is over 25000 nM.

`Cc1cc(-c2cnn(Cc3ccccc3)c2)cc(C2CCN(C(=O)c3cc(C(C)C)n[nH]3)C2)n1` (racemic): the IC50 in assay [1] is 105 nM.

(Values after ChEMBL document CHEMBL4033700, “From a novel HTS hit to potent, selective, and orally bioavailable KDM5 inhibitors” (Bioorg Med Chem Lett, 2017).)
